Data from US7863449B2, “Modulators of muscarinic receptors” (Vertex Pharmaceuticals Incorporated, priority 2004, dated 2011).

Tests used:
[1] = target: T1, M1 muscarinic receptor (Homo sapiens, UniProt P11229); test: Functional mobilization of intracellular calcium (FLIPR), M1-CHO cells; type: cell-based; conditions: for Emax: 100% efficacy is the maximum response obtained using Carbachol as a control; for M1 Activity: M1-CHO cells, FLIPR calcium mobilization
T1 construct: expressed in transfected cells; host or cells: CHO (M1-CHO)
T1 sequence (P11229 1-460): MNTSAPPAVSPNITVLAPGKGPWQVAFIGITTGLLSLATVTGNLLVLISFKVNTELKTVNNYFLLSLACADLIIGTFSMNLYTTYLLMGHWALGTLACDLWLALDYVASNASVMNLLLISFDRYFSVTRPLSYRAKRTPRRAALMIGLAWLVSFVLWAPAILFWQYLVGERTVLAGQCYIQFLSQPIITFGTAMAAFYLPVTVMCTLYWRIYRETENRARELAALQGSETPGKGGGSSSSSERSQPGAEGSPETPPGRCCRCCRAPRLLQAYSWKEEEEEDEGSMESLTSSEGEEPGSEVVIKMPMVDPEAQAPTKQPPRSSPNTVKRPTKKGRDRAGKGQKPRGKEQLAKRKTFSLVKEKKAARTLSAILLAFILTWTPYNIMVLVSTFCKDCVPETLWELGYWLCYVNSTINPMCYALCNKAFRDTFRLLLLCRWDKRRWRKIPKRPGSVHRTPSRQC
Summary of the method: (§1)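 CHO cells expressing M1 or M4, loaded with Fluo-3 AM or Calcium 3 dye with 1 mM probenecid, 0.5% DMSO final. Agonist mode: compound added directly; antagonist mode: 15 min pre-incubation (or co-application) before carbachol at EC80. Fluorescence recorded 60 s on FLIPR.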

[2] = target: T2, M4 muscarinic receptor (Homo sapiens, UniProt P08173); test: Functional mobilization of intracellular calcium (FLIPR), M4-CHO cells; type: cell-based; conditions: for Emax: 100% efficacy is the maximum response obtained using Carbachol as a control; for M4 Activity: M4-CHO cells, FLIPR calcium mobilization
T2 construct: expressed in transfected cells; host or cells: CHO (M4-CHO)
T2 sequence (P08173 1-479): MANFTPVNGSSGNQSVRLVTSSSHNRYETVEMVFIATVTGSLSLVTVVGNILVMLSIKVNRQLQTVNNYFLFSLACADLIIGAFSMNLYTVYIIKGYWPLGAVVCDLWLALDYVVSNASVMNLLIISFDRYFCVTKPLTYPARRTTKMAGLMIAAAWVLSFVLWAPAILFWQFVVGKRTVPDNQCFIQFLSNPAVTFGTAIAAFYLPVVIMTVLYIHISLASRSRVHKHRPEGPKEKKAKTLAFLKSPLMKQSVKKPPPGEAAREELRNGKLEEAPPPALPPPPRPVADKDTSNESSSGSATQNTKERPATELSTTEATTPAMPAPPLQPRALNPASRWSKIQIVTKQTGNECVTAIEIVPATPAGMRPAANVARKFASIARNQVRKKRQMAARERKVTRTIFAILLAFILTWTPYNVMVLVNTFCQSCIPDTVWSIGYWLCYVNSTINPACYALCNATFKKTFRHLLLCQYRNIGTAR
Summary of the method: as §1

Compound | Emax [1] [%] | M1 Activity [1] | Emax [2] [%] | M4 Activity [2]
CCOC(=O)N1C2CCC1CC(N1CCC3(CC1)CN(C(=O)Nc1c(C)noc1C)Cc1ccccc13)C2.Cl (stereo not shown) [compound 233, Ethyl 3-(2-(3,5-dimethylisoxazol-4-ylcarbamoyl)-2,3-dihydro-1H -spiro[isoquinoline-4,4′-piperidine]-1′-yl)-8-azabicyclo[3.2.1]octane-8-carboxylate hydrochloride] | 25 to 100 | +++ (activity was measured to be less than 1.0 μM) | 25 to 100 | +++ (activity was measured to be less than 1.0 μM)
CCOC(=O)N1CCC(N2CCC3(CC2)CN(C(=O)OC)Cc2ccccc23)CC1 [compound 240] | 25 to 100 | +++ (activity was measured to be less than 1.0 μM) | 25 to 100 | +++ (activity was measured to be less than 1.0 μM)
CC(C)OC(=O)N1C2CCC1CC(N1CCC3(CC1)CN(S(=O)(=O)N(C)C)Cc1ccccc13)C2 (stereo not shown) [compound 241] | 25 to 100 | +++ (activity was measured to be less than 1.0 μM) | 25 to 100 | +++ (activity was measured to be less than 1.0 μM)
CCOC(=O)N1CCC(N2CCC3(CC2)CN(C(=O)N(CC)CC)Cc2ccccc23)CC1 [compound 242] | 25 to 100 | +++ (activity was measured to be less than 1.0 μM) | < 25 | + (activity was measured to be greater than 5.0 μM)
CC(=O)N1Cc2ccccc2C2(CCN(CC3CCN(C(=O)O[C@H]4CCOC4)CC3)CC2)C1 [compound 243] | < 25 | + (activity was measured to be greater than 5.0 μM) | < 25 | + (activity was measured to be greater than 5.0 μM)
CCOC(=O)N1C2CCC1CC(N1CCC3(CC1)CN(C(=O)C1(C)CC1)Cc1ccccc13)C2 (stereo not shown) [compound 244] | 25 to 100 | +++ (activity was measured to be less than 1.0 μM) | 25 to 100 | +++ (activity was measured to be less than 1.0 μM)
CCOC(=O)N1C2CCC1CC(N1CCC3(CC1)CN(S(=O)(=O)c1ccc(-c4ccccc4)cc1)Cc1ccccc13)C2 (stereo not shown) [compound 245] | 25 to 100 | ++ (activity was measured to be from 1.0 μM to 5.0 μM) | 25 to 100 | ++ (activity was measured to be from 1.0 μM to 5.0 μM)
CCOC(=O)N1C2CCC1CC(N1CCC3(CC1)CN(S(=O)(=O)c1c(C)noc1C)Cc1ccccc13)C2 (stereo not shown) [compound 246] | 25 to 100 | +++ (activity was measured to be less than 1.0 μM) | > 100 | +++ (activity was measured to be less than 1.0 μM)
CC(=O)N1Cc2ccccc2C2(CCN(Cc3cccc(F)c3)CC2)C1 [compound 247] | < 25 | + (activity was measured to be greater than 5.0 μM) | < 25 | + (activity was measured to be greater than 5.0 μM)
COCCOC(=O)N1C2CCC1CC(N1CCC3(CC1)CN(S(=O)(=O)N(C)C)Cc1ccccc13)C2 (stereo not shown) [compound 249] | 25 to 100 | +++ (activity was measured to be less than 1.0 μM) | 25 to 100 | +++ (activity was measured to be less than 1.0 μM)
CCOC(=O)N1CCC(N2CCC3(CC2)CN(C(=O)C2CCC2)Cc2ccccc23)CC1 [compound 250] | 25 to 100 | +++ (activity was measured to be less than 1.0 μM) | 25 to 100 | +++ (activity was measured to be less than 1.0 μM)
CCOC(=O)N1C2CCC1CC(N1CCC3(CC1)CN(S(=O)(=O)c1ccc(C(F)(F)F)cc1)Cc1ccccc13)C2 (stereo not shown) [compound 251] | 25 to 100 | +++ (activity was measured to be less than 1.0 μM) | 25 to 100 | +++ (activity was measured to be less than 1.0 μM)
CC(=O)N1Cc2ccccc2C2(CCN(CC3CCN(C(=O)OC4CCCC4)CC3)CC2)C1 [compound 252] | < 25 | + (activity was measured to be greater than 5.0 μM) | < 25 | + (activity was measured to be greater than 5.0 μM)
CCOC(=O)N1C2CCC1CC(N1CCC3(CC1)CN(S(=O)(=O)c1cccc(Cl)c1)Cc1ccccc13)C2 (stereo not shown) [compound 253] | 25 to 100 | +++ (activity was measured to be less than 1.0 μM) | 25 to 100 | +++ (activity was measured to be less than 1.0 μM)
CCCOC(=O)N1Cc2ccccc2C2(CCN(C3CCN(C(=O)OCC)CC3)CC2)C1 [compound 254] | 25 to 100 | +++ (activity was measured to be less than 1.0 μM) | 25 to 100 | +++ (activity was measured to be less than 1.0 μM)
CCOCCN1CCC2(CC1)CN(C(C)=O)Cc1ccccc12 [compound 256] | < 25 |  | < 25 | 
CC(=O)N1Cc2ccccc2C2(CCN(C3CCN(C(=O)OC4CCC4)CC3)CC2)C1 [compound 258] | 25 to 100 | +++ (activity was measured to be less than 1.0 μM) | 25 to 100 | +++ (activity was measured to be less than 1.0 μM)
CCOC(=O)N1CCC(N2CCC3(CC2)CN(C(=O)c2nc(C)oc2C)Cc2ccccc23)CC1 [compound 261] | 25 to 100 | +++ (activity was measured to be less than 1.0 μM) | 25 to 100 | +++ (activity was measured to be less than 1.0 μM)
CCOC(=O)N1CCC(CN2CCC3(CC2)CN(C(=O)OC2CCCC2)Cc2ccccc23)CC1 [compound 263] | 25 to 100 | +++ (activity was measured to be less than 1.0 μM) | 25 to 100 | +++ (activity was measured to be less than 1.0 μM)
CC(=O)N1Cc2ccccc2C2(CCN(CC3CCCOC3)CC2)C1 (stereo not shown) [compound 266] | < 25 | + (activity was measured to be greater than 5.0 μM) | < 25 | + (activity was measured to be greater than 5.0 μM)
O=C1NC2(CCN(CC3CC4C=CC3C4)CC2)c2ccccc21 (stereo not shown) [compound 267, 1′-(bicyclo[2.2.1]hept-5-en-2-ylmethyl)spiro[isoindoline-1,4′-piperidin]-3-one] | 25 to 100 | ++ (activity was measured to be from 1.0 μM to 5.0 μM) | 25 to 100 | ++ (activity was measured to be from 1.0 μM to 5.0 μM)
CC(=O)N1Cc2ccccc2C2(CCN(C3CCSCC3)CC2)C1 [compound 268] | 25 to 100 | ++ (activity was measured to be from 1.0 μM to 5.0 μM) | 25 to 100 | ++ (activity was measured to be from 1.0 μM to 5.0 μM)
CCOC(=O)N1CCC(CN2CCC3(CC2)CN(C(=O)C(C)C)Cc2ccccc23)CC1 [compound 270] | 25 to 100 | +++ (activity was measured to be less than 1.0 μM) | 25 to 100 | +++ (activity was measured to be less than 1.0 μM)
CC(=O)N1Cc2ccccc2C2(CCN(Cc3cccnc3)CC2)C1 [compound 274] | < 25 | + (activity was measured to be greater than 5.0 μM) | < 25 | + (activity was measured to be greater than 5.0 μM)
CCOC(=O)N1CCC(CN2CCC3(CC2)CN(C(=O)c2nc(C)oc2C)Cc2ccccc23)CC1 [compound 275] | 25 to 100 | +++ (activity was measured to be less than 1.0 μM) | 25 to 100 | +++ (activity was measured to be less than 1.0 μM)
COC(=O)c1ccc(CN2CCC3(CC2)CN(C(C)=O)Cc2ccccc23)cc1 [compound 276] | 25 to 100 | ++ (activity was measured to be from 1.0 μM to 5.0 μM) | 25 to 100 | ++ (activity was measured to be from 1.0 μM to 5.0 μM)
CCOC(=O)N1CCC(N2CCC3(CC2)OC(=O)c2ccc(C)cc23)CC1 [compound 277] | 25 to 100 | +++ (activity was measured to be less than 1.0 μM) | 25 to 100 | +++ (activity was measured to be less than 1.0 μM)
